Columns and labels:
[1] = biological target: T1, ERCC1-XPF (Homo sapiens, UniProt Q92889); assay: Microplate fluorescence incision assay (endonuclease activity); format: biochemical; details: 10 μM inhibitor, 10 min preincubation
T1 construct: the final purity of the full-length ERCC1-XPF heterodimer was determined to be ~35%; His6; made in house; host or cells: E. coli BL21(DE3)
T1 sequence (Q92889 1-916): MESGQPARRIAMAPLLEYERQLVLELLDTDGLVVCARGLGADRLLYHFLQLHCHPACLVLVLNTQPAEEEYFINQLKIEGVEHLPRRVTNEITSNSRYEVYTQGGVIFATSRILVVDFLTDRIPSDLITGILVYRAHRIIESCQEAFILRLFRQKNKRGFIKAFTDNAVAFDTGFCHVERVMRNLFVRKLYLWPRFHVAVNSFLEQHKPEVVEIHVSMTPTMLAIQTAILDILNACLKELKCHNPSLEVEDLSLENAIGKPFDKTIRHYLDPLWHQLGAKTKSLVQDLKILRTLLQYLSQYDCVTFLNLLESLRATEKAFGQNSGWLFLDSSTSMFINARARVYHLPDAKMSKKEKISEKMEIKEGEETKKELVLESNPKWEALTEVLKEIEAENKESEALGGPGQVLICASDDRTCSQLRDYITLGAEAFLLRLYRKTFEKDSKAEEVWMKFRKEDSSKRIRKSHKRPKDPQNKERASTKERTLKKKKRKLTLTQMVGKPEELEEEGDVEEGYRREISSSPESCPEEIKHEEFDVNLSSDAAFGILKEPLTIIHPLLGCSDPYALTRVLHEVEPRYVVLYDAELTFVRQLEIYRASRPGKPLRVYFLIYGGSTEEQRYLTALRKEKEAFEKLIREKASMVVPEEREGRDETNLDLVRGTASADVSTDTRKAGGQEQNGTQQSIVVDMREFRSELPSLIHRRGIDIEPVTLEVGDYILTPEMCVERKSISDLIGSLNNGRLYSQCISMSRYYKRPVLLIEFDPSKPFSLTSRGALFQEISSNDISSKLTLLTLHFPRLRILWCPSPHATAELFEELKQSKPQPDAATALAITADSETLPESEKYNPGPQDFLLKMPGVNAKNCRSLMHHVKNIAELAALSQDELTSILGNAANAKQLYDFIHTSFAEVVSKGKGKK
Excerpt: Recombinant human ERCC1–XPF wild-type protein (containing polyhistidine (His-6) tags) was expressed from a bicistronic plasmid (kindly provided by Dr. Richard Wood, University of Texas MD Anderson Cancer Center, Smithville, TX) in the E. coli BL21(DE3) strain, Following previously described procedures ([70], [78]) the proteins extracted from E. coli were eluted from a ProBond Nickel-Chelating Resin (Thermo Fisher Scientific) and then a Hi-trap heparin column (GE Healthcare). Fractions containing ERCC1–XPF were dialyzed, concentrated, and stored at −80°C in 10 mM HEPES, pH 7.4, 2.5 mM β-mercaptoethanol, 0.01% CHAPS, 0.25 mM EDTA, 50% glycerol, and 25 mM NaCl. Based on polyacrylamide gel separation and Coomassie Blue staining, the final purity of the full-length ERCC1-XPF heterodimer was determined to be ~35%.
We employed a previously described protocol ([60], [70], [78]) in which the incision of the stem–loop substrate [6-FAM-5′-[…](20T)[…]-3′-dabcyl] (100 nM in 50 mM Tris-HCl, pH 8, 20 mM NaCl, 0.5 mM DDT, and 0.75 mM MnCl2) mediated by ERCC1-XPF (25 ng) in a total volume of 20 μL at 25°C was monitored by fluorescence using a FLUOstar Optima fluorimeter (BMG Labtech) with Optima software and excitation and emission wavelengths of 485 and 520 nm, respectively, for 5.5 min. The final concentration of inhibitor in the reaction was 10 μM prepared from a 200 μM stock solution in DMSO. With a molecular weight of 151 KDa for the XPF-ERCC1 heterodimer, a concentration of 25 ng of protein in 20 µl reaction buffer and a purity of 35%, the molar concentration of the enzyme was estimated to be 2.9 nM. Data were plotted using Microsoft Excel 2016.
An in vitro fluorescence-based assay was used to assess the ability of the synthesized compounds to inhibit the endonuclease activity of ERCC1-XPF. This assay has been previously described ([60], [70], [78]) and makes use of a stem-loop DNA substrate with a 5’-FAM fluorescent dye, and a 3’-dabcyl quencher. When ERCC1-XPF can cleave the DNA substrate, a 5’-FAM containing molecule is liberated from the stem-loop (and the quencher) and the fluorescence of the solution increases. The increase of the fluorescence of the solution can be observed in Figure 3A , in the absence of any inhibitor. To determine the influence of the inhibitory compounds, the protein was preincubated for 10 minutes with 10 μM of each inhibitor prior to addition of the substrate.

[2] = biological target: T2, ERCC1-XPF heterodimer in A549 cells (Homo sapiens, UniProt Q92889); set-up: method as in PMID 33399940; details: cited from earlier work; for PLA: inhibition of the interaction between ERCC1 and XPF (in words): A549 cells treated with 20 μM cisplatin and 1 μM inhibitor
T2 construct: endogenous in cells; host or cells: A549
T2 sequence (Q92889 1-916): T1 sequence (Q92889 1-916)

[3] = tested on: HCT-116 cells; assay: Clonogenic survival assay, UV treatment; format: cell-based, human; details: 0.5 μM
Experimental: HCT-116 cells (100–800 cells depending on the UV dose) were plated in triplicate in 60-mm Petri dishes in DMEM/F12 medium. Following overnight attachment of the cells in a humidified atmosphere containing 5% CO2 at 37°C, the cells were treated with 0.5 μM compound 6 or 10 in DMSO (as described in section 2.7) for 4 h before the medium was removed, and the cells exposed to increasing doses (0–10 J/m^2) of UV-C radiation. The cells were then cultured for a further 24 h in the presence of inhibitor and then for an additional 9 days in the absence of inhibitor to allow for colony formation. Colonies were stained with crystal violet and counted using a Colcount instrument (Oxford Optronix, Abingdon UK) to facilitate determination of plating efficiency and surviving fraction. Data were plotted using GraphPad Prism version 5.04 software.

[4] = tested on: HCT-116 cells; assay: Clonogenic survival assay, cyclophosphamide treatment; format: cell-based, human
Experimental: […] The medium was then replaced with drug and inhibitor-free fresh medium. After incubation for another 9 days to allow for colony formation, the plates were stained with crystal violet, colonies were counted, and plating efficiency and surviving fraction were calculated. Data were plotted using GraphPad Prism version 5.04. software.

[5] = tested on: HCT-116 cells; assay: Cellular repair of cyclobutane pyrimidine dimers (cellular NER) after UVC; format: cell-based, human; details: 2 μM
Experimental: We followed the protocol of Mirzayans et al. ([79]) with minor modifications as previously described ([70]). Inhibitor compounds were dissolved in DMSO and applied to a final DMSO concentration of 0.2% in media and 0.2% DMSO was used as the vehicle control. Mouse anti-thymine dimer monoclonal antibody (cat. no. MC-062, Kamiya Biomedical Company, Seattle, WA) was used for the immunofluorescence following UVC irradiation of the cells and fluorescent microscopic evaluation and measurement of fluorescence intensity were performed using MetaXpress, version 6.2.1.704, software (Molecular Devices, Sunnyvale, California). Data were plotted using GraphPad Prism version 5.04 software.
Immunofluorescent detection of cyclobutane pyrimidine dimers (CPD) generated in the DNA of HCT-116 cells after exposure to UVC radiation was used to measure NER. Our observations that approximately 80% of CPD were removed 24 hours post irradiation in the absence of any inhibitors mirrors previous observations ([70], [79]).

Question: For `COc1ccc2nc3cc(Cl)ccc3c(Nc3ccc(O)c(CN4CCN(CCNCc5cccs5)CC4)c3)c2c1` [Compound 11], which “inhibition of ERCC1-XPF endonuclease activity (in words, vs control and 4)” value (from here on “inhibition … (in words, vs control and 4)”) [1] is on record?
Answer: some inhibition of ERCC1-XPF endonuclease activity

Question: For `CN(C)CCN1CCN(Cc2cc(Nc3c4ccc(Cl)cc4nc4ccc(O)cc34)ccc2O)CC1` [Compound 5], which “PLA: inhibition of the interaction between ERCC1 and XPF (in words)” value [2] is on record?
Answer: clear inhibition of the interaction between ERCC1 and XPF

Question: And the “PLA: disruption of ERCC1-XPF heterodimerization (in words)” value ([2]; A549 not treated with cisplatin, 1 μM inhibitor)?
Answer: significant disruption of ERCC1-XPF heterodimerization

Question: Which “inhibition … (in words, vs control and 4)” value [1] does the source give for `CNC(=O)C(C)(C)CN1CCN(Cc2cc(Nc3c4ccc(Cl)cc4nc4ccc(OC)cc34)ccc2O)CC1` [Compound 12] here?
Answer: some inhibition of ERCC1-XPF endonuclease activity

Question: For `COc1ccc2nc3cc(Cl)ccc3c(Nc3ccc(O)c(CN4CCN(C)CC4)c3)c2c1` [Compound 1], which “PLA: inhibition of the interaction between ERCC1 and XPF (in words)” value [2] is on record?
Answer: clear inhibition of the interaction between ERCC1 and XPF

Question: With `COc1ccc2nc3cc(Cl)ccc3c(Nc3ccc(O)c(CN4CCN(CCNCc5ccccc5)CC4)c3)c2c1` [Compound 10] as the compound, how does the “sensitization to UVC radiation (in words)” value [3] read?
Answer: no sensitization of HCT-116 to UVC radiation

Question: And the “sensitization to cyclophosphamide (in words)” value ([4]; 0.5 μM 6, 10 at 1.0 μM or 0.5 μM)?
Answer: no significant sensitization of HCT-116 cells to cyclophosphamide

Question: And the “effect on CPD removal / cellular NER (in words)” value [5]?
Answer: no significant effect on CPD removal

Question: And the “inhibition … (in words, vs control and 4)” value [1]?
Answer: some inhibition of ERCC1-XPF endonuclease activity

Question: With `COc1ccc2nc3cc(Cl)ccc3c(Nc3ccc(O)c(CN4CCN(CCCN(C)C5Cc6ccccc6C5)CC4)c3)c2c1` [Compound 8] as the compound, how does the “inhibition … (in words, vs control and 4)” value [1] read?
Answer: some inhibition of ERCC1-XPF endonuclease activity

Question: With `COCCN1CCN(Cc2cc(Nc3c4ccc(Cl)cc4nc4ccc(OC)cc34)ccc2O)CC1` [Compound 15] as the compound, how does the “inhibition … (in words, vs control and 4)” value [1] read?
Answer: some inhibition of ERCC1-XPF endonuclease activity

Question: With `O=P1(N(CCCl)CCCl)NCCCO1` (stereo not drawn) [cyclophosphamide, reference compound] as the compound, how does the “cell survival, cyclophosphamide alone” value ([4]; 50 μM cyclophosphamide, no inhibitor) read?
Answer: 91.5%

— article PMC8968952, “Modulation of ERCC1-XPF Heterodimerization Inhibition via Structural Modification of Small Molecule Inhibitor Side-Chains” (Frontiers in Oncology, 2022)
